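48-hour exposure; five concentrations; linearly interpolated endpoints. GI50 is the concentration that inhibits growth by half. TGI marks complete inhibition of growth.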
Tests used:
Test in all cases: NCI tumour cell line growth inhibition, 48 h
[1] = tested on: LOX IMVI melanoma
[2] = tested on: HL-60(TB) leukemia
[3] = tested on: PC-3 prostate
[4] = tested on: HCC-2998 colon
[5] = tested on: A498 renal
[6] = tested on: NCI-H460 lung
[7] = tested on: UO-31 renal
[8] = tested on: SK-MEL-5 melanoma
[9] = tested on: ACHN renal
[10] = tested on: MDA-MB-435

COc1cc(CC(C)N)ccc1O (stereo not drawn)
TGI [1]: > 100 µM
TGI [2]: > 100 µM
TGI [3]: > 100 µM
TGI [4]: > 100 µM
TGI [5]: > 100 µM
TGI [6]: > 100 µM
TGI [7]: > 100 µM
TGI [8]: > 100 µM
TGI [9]: > 100 µM

Nc1nc(Nc2ccc(Cl)cc2)sc1C(=O)c1cccs1
TGI [1]: > 100 µM
TGI [2]: > 100 µM
TGI [3]: > 100 µM
TGI [5]: 72.9 µM
TGI [6]: > 100 µM
TGI [7]: 95.9 µM
TGI [8]: > 100 µM
TGI [9]: > 100 µM
TGI [10]: > 100 µM

O=C(O)CC(NC(=O)/C(=C/c1ccccc1O)NC(=O)c1ccccc1)C(=O)O (stereo not drawn)
TGI [1]: > 100 µM
TGI [2]: 76.5 µM
TGI [3]: > 100 µM
TGI [4]: > 100 µM
TGI [5]: > 100 µM
TGI [7]: > 100 µM
TGI [8]: > 100 µM
TGI [9]: > 100 µM
TGI [10]: > 100 µM

Cc1ccc(-c2c(C#N)c(-c3ccc([N+](=O)[O-])cc3)c(C#N)c(=O)n2NS(=O)(=O)c2ccccc2)cc1
TGI [1]: 83 µM
TGI [3]: > 100 µM
TGI [4]: > 100 µM
TGI [5]: > 100 µM
TGI [6]: > 100 µM
TGI [8]: 26.9 µM
TGI [9]: > 100 µM
TGI [10]: > 100 µM

O=C1c2cccc(NCCNCCO)c2C(=O)c2cccc(NCCNCCO)c21
TGI [1]: 1.65 µM
TGI [2]: 5.19 µM
TGI [3]: 3.02 µM
TGI [4]: 2.45 µM
TGI [5]: 7.44 µM
TGI [6]: 7.43 µM
TGI [7]: 25.9 µM
TGI [8]: 3.39 µM
TGI [9]: 8.16 µM

NS(=O)(=O)c1ccc(NC(NC(=O)C(C(F)(F)F)C(F)(F)F)(C(F)(F)F)C(F)(F)F)cc1
TGI [1]: > 100 µM
TGI [2]: > 100 µM
TGI [3]: > 100 µM
TGI [4]: > 100 µM
TGI [6]: > 100 µM
TGI [7]: > 100 µM
TGI [8]: > 100 µM
TGI [9]: > 100 µM
TGI [10]: > 100 µM

O=C(Nc1ccc(-n2cc(-c3ccncc3)c(-c3ccc(O)c(Cl)c3)n2)cc1)Nc1cccc(Cl)c1Cl
GI50 [1]: 3.45 µM
TGI [1]: > 32.5 µM
GI50 [2]: 7.49 µM
TGI [2]: > 32.5 µM
GI50 [3]: 1.73 µM
TGI [3]: 14.3 µM
GI50 [4]: 18.9 µM
TGI [4]: > 32.5 µM
GI50 [5]: 13.8 µM
TGI [5]: > 32.5 µM
GI50 [6]: 5.74 µM
TGI [6]: > 32.5 µM
GI50 [7]: 6.67 µM
TGI [7]: > 32.5 µM
GI50 [8]: 3.26 µM
TGI [8]: > 32.5 µM
GI50 [9]: 7.82 µM
TGI [9]: > 32.5 µM
GI50 [10]: 4.5 µM
TGI [10]: > 32.5 µM

O=C1CS(=O)C23c4cc5ccccc5n4CCC2CCCN13 (stereo not drawn)
TGI [1]: > 100 µM
TGI [2]: > 100 µM
TGI [3]: > 100 µM
TGI [5]: > 100 µM
TGI [8]: > 100 µM
TGI [9]: > 100 µM
TGI [10]: > 100 µM

OCC(O)C(O)C(O)/C=N/Nc1nc(O)c(/C=C2\C=Nc3ccccc32)[nH]1 (stereo not drawn)
TGI [1]: > 100 µM
TGI [2]: > 100 µM
TGI [4]: > 100 µM
TGI [6]: > 100 µM
TGI [8]: > 100 µM
TGI [9]: > 100 µM
TGI [10]: > 100 µM

O=c1n(Cc2ccccc2)c(=O)n2c(=O)n(Cc3ccccc3)c(=O)n12
TGI [1]: > 100 µM
TGI [2]: > 100 µM
TGI [4]: > 100 µM
TGI [5]: > 100 µM
TGI [6]: > 100 µM
TGI [7]: > 100 µM
TGI [8]: > 100 µM
TGI [9]: > 100 µM
TGI [10]: > 100 µM

C[C@]12CC[C@H](O)C=C1CC[C@@H]1[C@@H]2CC[C@]2(C)C(c3ccc(=O)oc3)CC[C@]12O (stereo partly drawn)
TGI [1]: 0.242 µM
TGI [2]: < 0.0125 µM
TGI [4]: 0.208 µM
TGI [5]: 0.081 µM
TGI [6]: 0.0156 µM
TGI [7]: 0.041 µM
TGI [8]: 0.0163 µM

c1csc(-c2c3ccc(=[N+]4CCCCC4)cc-3oc3cc(N4CCCCC4)ccc23)c1
GI50 [2]: 0.145 µM
TGI [2]: 0.547 µM
GI50 [3]: 0.0373 µM
TGI [3]: 0.177 µM
GI50 [4]: 0.0391 µM
TGI [4]: 0.14 µM
GI50 [5]: 0.0683 µM
TGI [5]: 0.453 µM
GI50 [7]: 0.136 µM
TGI [7]: 0.277 µM
GI50 [8]: 0.141 µM
TGI [8]: 0.276 µM

CCN1C(=O)N(CC)C2Nn3c(s/c(=C4\C(=O)N(C)c5ccccc54)c3=O)=NC21 (stereo not drawn)
GI50 [1]: 4.82 µM
TGI [1]: > 100 µM
GI50 [3]: 3.52 µM
TGI [3]: > 100 µM
GI50 [5]: 1.67 µM
TGI [5]: 5.68 µM
GI50 [6]: 3.35 µM
TGI [6]: > 100 µM
GI50 [7]: 2.82 µM
TGI [7]: > 100 µM
GI50 [8]: 4.61 µM
TGI [8]: > 100 µM
GI50 [9]: 3.42 µM
TGI [9]: > 100 µM

CC/C(Cl)=N\OC(=O)Nc1ccc(F)c([N+](=O)[O-])c1
TGI [1]: > 48.9 µM
TGI [3]: 32.4 µM
TGI [4]: > 100 µM
TGI [5]: 39.4 µM
TGI [6]: > 100 µM
TGI [7]: 14.2 µM
TGI [8]: 29.5 µM
TGI [9]: 4.78 µM
TGI [10]: 33.5 µM

CN1COCc2cc3cc4c(cc3nc21)OCCO4
TGI [1]: > 100 µM
TGI [3]: > 100 µM
TGI [4]: > 100 µM
TGI [5]: > 100 µM
TGI [6]: > 100 µM
TGI [8]: > 100 µM
TGI [9]: > 100 µM
TGI [10]: > 100 µM

CC1=CC(=O)CC2(C)CCC(C(C)CC(=O)CC(C)C)CC12 (stereo not drawn)
TGI [1]: 34.8 µM
TGI [2]: 43.2 µM
TGI [3]: 40.7 µM
TGI [5]: > 100 µM
TGI [6]: > 100 µM
TGI [7]: > 100 µM
TGI [8]: 36.4 µM
TGI [9]: 31.3 µM
TGI [10]: 39 µM

CC(C)(C)OC(=O)C1C(=O)NC(=O)CC1C(COCc1ccccc1)OCc1ccccc1 (stereo not drawn)
TGI [1]: 34.7 µM
TGI [2]: 60.6 µM
TGI [3]: 27.2 µM
TGI [4]: 47.7 µM
TGI [7]: 55.8 µM
TGI [8]: 31.1 µM
TGI [9]: 50.7 µM
TGI [10]: 49.7 µM

S=C1CC(c2ccccc2)Sc2ccc(Cl)cc2N1 (stereo not drawn)
TGI [1]: > 100 µM
TGI [2]: > 100 µM
TGI [3]: > 100 µM
TGI [6]: > 100 µM
TGI [7]: > 100 µM
TGI [8]: > 100 µM
TGI [9]: > 100 µM
TGI [10]: > 100 µM

COC(=O)[C@H](C)NC(=O)[C@H](CSC)N1C(=O)N[C@@H](C(C)C)C1=O
TGI [1]: > 100 µM
TGI [3]: > 100 µM
TGI [4]: > 100 µM
TGI [6]: > 100 µM
TGI [7]: > 100 µM
TGI [8]: > 100 µM
TGI [9]: > 100 µM
TGI [10]: > 100 µM

C[C@]1(S(=O)(=O)c2ccccc2)C[C@H]2N(Cc3ccccc3)[C@@H]1CCC21OCCO1
TGI [1]: > 100 µM
TGI [2]: 32.6 µM
TGI [3]: > 100 µM
TGI [6]: > 100 µM
TGI [7]: > 100 µM
TGI [8]: > 100 µM
TGI [9]: > 100 µM
TGI [10]: > 100 µM

O=[N+]([O-])c1ccc(C2=Nc3ccccc3SC(c3ccccc3)C2)cc1 (stereo not drawn)
TGI [1]: 29.3 µM
TGI [2]: 40 µM
TGI [4]: 29 µM
TGI [5]: 47.9 µM
TGI [6]: 43.9 µM
TGI [7]: 25.8 µM
TGI [8]: 32.9 µM
TGI [9]: 36.2 µM

COc1cc2c(c(O)c1O)-c1ccc(OC)c(=O)cc1C(NC(C)=O)CC2 (stereo not drawn)
TGI [1]: 34.8 µM
TGI [2]: 5.29 µM
TGI [4]: > 78.1 µM
TGI [5]: > 89.9 µM
TGI [6]: 87.7 µM
TGI [7]: > 100 µM
TGI [8]: 16.2 µM
TGI [9]: > 100 µM

Source: PubChem BioAssay (NCI)
